Experimental data taken from US10227344B2, “CK2 inhibitors, compositions and methods thereof” (Polaris Pharmaceuticals, Inc., priority 2016, dated 2019).

Legend:
Format in all cases: cell-based
MOLT4 = experiment: Cancer cell panel, cell viability (resazurin): Leukemia, MOLT4; settings: 72 hours, labelled drug combined with Example 3
SK-MEL-24 = experiment: Cancer cell panel, cell viability (resazurin): Melanoma, SK-MEL-24; settings: SK-MEL-24 (Melanoma), 72 hours; labelled drug combined with Example 3
Description: (§1) Cells were plated in 96-well plates and treated for 72 hours with a serially diluted CK2 inhibitor or anti-cancer drug or their combination. The suspension cell lines were treated right after plating, while the adherent cells were allowed to attach overnight prior to the start of the treatment.
(§2) Cell viability was determined by adding resazurin to cell cultures and measuring fluorescence with a plate reader. Relative cell viability was calculated by dividing the cell viability signal from a test sample by that of a non-treated control. […] Bliss Independence and Highest Single Agent models were used to determine if there is synergy, additivity or antagonism between the CK2 inhibitor and an anti-cancer drug.

OVCAR-3 = experiment: Cancer cell panel, cell viability (resazurin): Ovarian, OVCAR-3; settings: OVCAR-3 (Ovarian), 72 hours; labelled drug combined with Example 3
ACHN = experiment: Cancer cell panel, cell viability (resazurin): Renal, ACHN; settings: 72 hours, labelled drug combined with Example 3
Description: as §1, §2

SK-MEL-3 = experiment: Cancer cell panel, cell viability (resazurin): Melanoma, SK-MEL-3; settings: SK-MEL-3 (Melanoma), 72 hours; labelled drug combined with Example 3
WM-115 = experiment: Cancer cell panel, cell viability (resazurin): Melanoma, WM-115; settings: WM-115 (Melanoma), 72 hours; labelled drug combined with Example 3
Description: as §1, §2

HL60 = experiment: Cancer cell panel, cell viability (resazurin): Leukemia, HL60; settings: 72 hours, labelled drug combined with Example 3
PC3 = experiment: Cancer cell panel, cell viability (resazurin): Prostate, PC3; settings: 72 hours, labelled drug combined with Example 3
ZR-75-1 = experiment: Cancer cell panel, cell viability (resazurin): Breast, ZR-75-1; settings: ZR-75-1 (Breast), 72 hours; labelled drug combined with Example 3
Description: as §1, §2

LoVo = experiment: Cancer cell panel, cell viability (resazurin): Colon, LoVo; settings: 72 hours, labelled drug combined with Example 3
A2780 = experiment: Cancer cell panel, cell viability (resazurin): Ovarian, A2780; settings: 72 hours, labelled drug combined with Example 3
Description: as §1, §2

SKOV-3 = experiment: Cancer cell panel, cell viability (resazurin): Ovarian, SKOV-3; settings: SKOV-3 (Ovarian), 72 hours; labelled drug combined with Example 3
RPMI8226 = experiment: Cancer cell panel, cell viability (resazurin): multiple myeloma, RPMI8226; settings: 72 hours, labelled drug combined with Example 3
Caov-3 = experiment: Cancer cell panel, cell viability (resazurin): Ovarian, Caov-3; settings: Caov-3 (Ovarian), 72 hours; labelled drug combined with Example 3
HT29 = experiment: Cancer cell panel, cell viability (resazurin): Colon, HT29; settings: 72 hours, labelled drug combined with Example 3
H2122 = experiment: Cancer cell panel, cell viability (resazurin): NSCLC, H2122; settings: 72 hours, labelled drug combined with Example 3
Description: as §1, §2

A375 = experiment: Cancer cell panel, cell viability (resazurin): Melanoma, A375; settings: 72 hours, labelled drug combined with Example 3
SkBr-3 = experiment: Cancer cell panel, cell viability (resazurin): Breast, SkBr-3; settings: SkBr-3 (Breast), 72 hours; labelled drug combined with Example 3
BT-474 = experiment: Cancer cell panel, cell viability (resazurin): Breast, BT-474; settings: BT-474 (Breast), 72 hours; labelled drug combined with Example 3
Description: as §1, §2

H1299 = experiment: Cancer cell panel, cell viability (resazurin): NSCLC, H1299; settings: 72 hours, labelled drug combined with Example 3
Description: as §1, §2

H1975 = experiment: Cancer cell panel, cell viability (resazurin): NSCLC, H1975; settings: 72 hours, labelled drug combined with Example 3
U87MG = experiment: Cancer cell panel, cell viability (resazurin): Glioblastoma, U87MG; settings: 72 hours, labelled drug combined with Example 3
Description: as §1, §2

U266 = experiment: Cancer cell panel, cell viability (resazurin): multiple myeloma, U266; settings: 72 hours, labelled drug combined with Example 3
DLD-1 = experiment: Cancer cell panel, cell viability (resazurin): Colon, DLD-1; settings: DLD-1 (Colon), 72 hours; labelled drug combined with Example 3
Description: as §1, §2

MDA-MB-231 = experiment: Cancer cell panel, cell viability (resazurin): Breast, MDA-MB-231; settings: MDA-MB-231 (Breast), 72 hours; labelled drug combined with Example 3
Colo205 = experiment: Cancer cell panel, cell viability (resazurin): Colon, Colo205; settings: 72 hours, labelled drug combined with Example 3
BT-20 = experiment: Cancer cell panel, cell viability (resazurin): Breast, BT-20; settings: BT-20 (Breast), 72 hours; labelled drug combined with Example 3
H23 = experiment: Cancer cell panel, cell viability (resazurin): NSCLC, H23; settings: 72 hours, labelled drug combined with Example 3
H460 = experiment: Cancer cell panel, cell viability (resazurin): NSCLC, H460; settings: 72 hours, labelled drug combined with Example 3
EOL-1 = experiment: Cancer cell panel, cell viability (resazurin): Leukemia, EOL-1; settings: EOL-1 (Leukemia), 72 hours; labelled drug combined with Example 3
T47D = experiment: Cancer cell panel, cell viability (resazurin): Breast, T47D; settings: 72 hours, labelled drug combined with Example 3
Daudi = experiment: Cancer cell panel, cell viability (resazurin): Burkitt's Lymphoma, Daudi; settings: 72 hours, labelled drug combined with Example 3
MDA-MB-453 = experiment: Cancer cell panel, cell viability (resazurin): Breast, MDA-MB-453; settings: MDA-MB-453 (Breast), 72 hours; labelled drug combined with Example 3
Description: as §1, §2

NAMALWA = experiment: Cancer cell panel, cell viability (resazurin): Burkitt's Lymphoma, NAMALWA; settings: 72 hours, labelled drug combined with Example 3
Caki-1 = experiment: Cancer cell panel, cell viability (resazurin): Renal, Caki-1; settings: Caki-1 (Renal), 72 hours; labelled drug combined with Example 3
K562 = experiment: Cancer cell panel, cell viability (resazurin): Leukemia, K562; settings: 72 hours, labelled drug combined with Example 3
786-O = experiment: Cancer cell panel, cell viability (resazurin): Renal, 786-O; settings: 786-O (Renal), 72 hours; labelled drug combined with Example 3
BxPC3 = experiment: Cancer cell panel, cell viability (resazurin): Pancreatic, BxPC3; settings: 72 hours, labelled drug combined with Example 3
Panc-1 = experiment: Cancer cell panel, cell viability (resazurin): Pancreatic, Panc-1; settings: Panc-1 (Pancreatic), 72 hours; labelled drug combined with Example 3

SMILES: C#Cc1cccc(Nc2ncnc3cc(OCCOC)c(OCCOC)cc23)c1 [Erlotinib, erlotinib]
- synergy, additivity or antagonism of the combination of Example 3 with the anti-cancer drug (MOLT4): + + (Slight synergy relative to each agent alone (CI = 0.75-0.9 by Bliss Independence Model))
- synergy, additivity or antagonism of the combination of Example 3 with the anti-cancer drug (SK-MEL-24): + (Additive relative to each agent alone (CI = 0.9-1 by Bliss Independence Model and <0.9 by Highest Single Agent Model))
- synergy, additivity or antagonism of the combination of Example 3 with the anti-cancer drug (OVCAR-3): + (Additive relative to each agent alone (CI = 0.9-1 by Bliss Independence Model and <0.9 by Highest Single Agent Model))
- synergy, additivity or antagonism of the combination of Example 3 with the anti-cancer drug (ACHN): + (Additive relative to each agent alone (CI = 0.9-1 by Bliss Independence Model and <0.9 by Highest Single Agent Model))
- synergy, additivity or antagonism of the combination of Example 3 with the anti-cancer drug (SK-MEL-3): + (Additive relative to each agent alone (CI = 0.9-1 by Bliss Independence Model and <0.9 by Highest Single Agent Model))
- synergy, additivity or antagonism of the combination of Example 3 with the anti-cancer drug (WM-115): + (Additive relative to each agent alone (CI = 0.9-1 by Bliss Independence Model and <0.9 by Highest Single Agent Model))
- synergy, additivity or antagonism of the combination of Example 3 with the anti-cancer drug (HL60): + + (Slight synergy relative to each agent alone (CI = 0.75-0.9 by Bliss Independence Model))
- synergy, additivity or antagonism of the combination of Example 3 with the anti-cancer drug (PC3): − (Slightly antagonistic relative to each agent alone (CI = 1.1-1.2 by Highest Single Agent Model))
- synergy, additivity or antagonism of the combination of Example 3 with the anti-cancer drug (ZR-75-1): + (Additive relative to each agent alone (CI = 0.9-1 by Bliss Independence Model and <0.9 by Highest Single Agent Model))
- synergy, additivity or antagonism of the combination of Example 3 with the anti-cancer drug (LoVo): + (Additive relative to each agent alone (CI = 0.9-1 by Bliss Independence Model and <0.9 by Highest Single Agent Model))
- synergy, additivity or antagonism of the combination of Example 3 with the anti-cancer drug (A2780): + + (Slight synergy relative to each agent alone (CI = 0.75-0.9 by Bliss Independence Model))
- synergy, additivity or antagonism of the combination of Example 3 with the anti-cancer drug (SKOV-3): + + + (Synergy relative to each agent alone (CI = 0.4-0.74 by Bliss Independence Model))
- synergy, additivity or antagonism of the combination of Example 3 with the anti-cancer drug (RPMI8226): + + + (Synergy relative to each agent alone (CI = 0.4-0.74 by Bliss Independence Model))
- synergy, additivity or antagonism of the combination of Example 3 with the anti-cancer drug (Caov-3): + + (Slight synergy relative to each agent alone (CI = 0.75-0.9 by Bliss Independence Model))
- synergy, additivity or antagonism of the combination of Example 3 with the anti-cancer drug (HT29): + + (Slight synergy relative to each agent alone (CI = 0.75-0.9 by Bliss Independence Model))
- synergy, additivity or antagonism of the combination of Example 3 with the anti-cancer drug (H2122): + + + + (Strong synergy relative to each agent alone (CI < 0.4 by Bliss Independence Model))
- synergy, additivity or antagonism of the combination of Example 3 with the anti-cancer drug (A375): + + (Slight synergy relative to each agent alone (CI = 0.75-0.9 by Bliss Independence Model))
- synergy, additivity or antagonism of the combination of Example 3 with the anti-cancer drug (SkBr-3): + + (Slight synergy relative to each agent alone (CI = 0.75-0.9 by Bliss Independence Model))
- synergy, additivity or antagonism of the combination of Example 3 with the anti-cancer drug (BT-474): + + (Slight synergy relative to each agent alone (CI = 0.75-0.9 by Bliss Independence Model))
- synergy, additivity or antagonism of the combination of Example 3 with the anti-cancer drug (H1299): + (Additive relative to each agent alone (CI = 0.9-1 by Bliss Independence Model and <0.9 by Highest Single Agent Model))
- synergy, additivity or antagonism of the combination of Example 3 with the anti-cancer drug (H1975): + + (Slight synergy relative to each agent alone (CI = 0.75-0.9 by Bliss Independence Model))
- synergy, additivity or antagonism of the combination of Example 3 with the anti-cancer drug (U87MG): + (Additive relative to each agent alone (CI = 0.9-1 by Bliss Independence Model and <0.9 by Highest Single Agent Model))
- synergy, additivity or antagonism of the combination of Example 3 with the anti-cancer drug (U266): + (Additive relative to each agent alone (CI = 0.9-1 by Bliss Independence Model and <0.9 by Highest Single Agent Model))
- synergy, additivity or antagonism of the combination of Example 3 with the anti-cancer drug (DLD-1): + + + (Synergy relative to each agent alone (CI = 0.4-0.74 by Bliss Independence Model))
- synergy, additivity or antagonism of the combination of Example 3 with the anti-cancer drug (MDA-MB-231): + + (Slight synergy relative to each agent alone (CI = 0.75-0.9 by Bliss Independence Model))
- synergy, additivity or antagonism of the combination of Example 3 with the anti-cancer drug (Colo205): + + + (Synergy relative to each agent alone (CI = 0.4-0.74 by Bliss Independence Model))
- synergy, additivity or antagonism of the combination of Example 3 with the anti-cancer drug (BT-20): + + + (Synergy relative to each agent alone (CI = 0.4-0.74 by Bliss Independence Model))
- synergy, additivity or antagonism of the combination of Example 3 with the anti-cancer drug (H23): + + + (Synergy relative to each agent alone (CI = 0.4-0.74 by Bliss Independence Model))
- synergy, additivity or antagonism of the combination of Example 3 with the anti-cancer drug (H460): + + + + (Strong synergy relative to each agent alone (CI < 0.4 by Bliss Independence Model))
- synergy, additivity or antagonism of the combination of Example 3 with the anti-cancer drug (EOL-1): + (Additive relative to each agent alone (CI = 0.9-1 by Bliss Independence Model and <0.9 by Highest Single Agent Model))
- synergy, additivity or antagonism of the combination of Example 3 with the anti-cancer drug (T47D): + (Additive relative to each agent alone (CI = 0.9-1 by Bliss Independence Model and <0.9 by Highest Single Agent Model))
- synergy, additivity or antagonism of the combination of Example 3 with the anti-cancer drug (Daudi): + + (Slight synergy relative to each agent alone (CI = 0.75-0.9 by Bliss Independence Model))
- synergy, additivity or antagonism of the combination of Example 3 with the anti-cancer drug (MDA-MB-453): + + (Slight synergy relative to each agent alone (CI = 0.75-0.9 by Bliss Independence Model))
- synergy, additivity or antagonism of the combination of Example 3 with the anti-cancer drug (NAMALWA): + (Additive relative to each agent alone (CI = 0.9-1 by Bliss Independence Model and <0.9 by Highest Single Agent Model))
- synergy, additivity or antagonism of the combination of Example 3 with the anti-cancer drug (Caki-1): + (Additive relative to each agent alone (CI = 0.9-1 by Bliss Independence Model and <0.9 by Highest Single Agent Model))
- synergy, additivity or antagonism of the combination of Example 3 with the anti-cancer drug (K562): + + + (Synergy relative to each agent alone (CI = 0.4-0.74 by Bliss Independence Model))
- synergy, additivity or antagonism of the combination of Example 3 with the anti-cancer drug (786-O): + + (Slight synergy relative to each agent alone (CI = 0.75-0.9 by Bliss Independence Model))
- synergy, additivity or antagonism of the combination of Example 3 with the anti-cancer drug (BxPC3): + + + + (Strong synergy relative to each agent alone (CI < 0.4 by Bliss Independence Model))
- synergy, additivity or antagonism of the combination of Example 3 with the anti-cancer drug (Panc-1): + (Additive relative to each agent alone (CI = 0.9-1 by Bliss Independence Model and <0.9 by Highest Single Agent Model))
